Remaining binding data for one compound are collected here from article PMC6576746, “Rational discovery of dual-indication multi-target PDE/Kinase inhibitor for precision anti-cancer therapy using structural systems pharmacology” (PLoS Computational Biology, 2019).

Structures are written as SMILES.

What all share (test): biochemical
What all share (parameters): DiscoverX KinomeScan competition binding assay across human kinases; per cent of control at 10 and 100 uM

For one test, the target named is ACVR2A (Homo sapiens, UniProt P27037). As to conditions: competition binding, % of control. Put shortly: (§1)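 Binding is expressed as %control, normalised between positive and negative control signals. The compound (levosimendan) was tested at 10 μM and 100 μM in the DiscoverX KinomeScan competition binding format against human kinases.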
Chain of ACVR2A (P27037 whole entry): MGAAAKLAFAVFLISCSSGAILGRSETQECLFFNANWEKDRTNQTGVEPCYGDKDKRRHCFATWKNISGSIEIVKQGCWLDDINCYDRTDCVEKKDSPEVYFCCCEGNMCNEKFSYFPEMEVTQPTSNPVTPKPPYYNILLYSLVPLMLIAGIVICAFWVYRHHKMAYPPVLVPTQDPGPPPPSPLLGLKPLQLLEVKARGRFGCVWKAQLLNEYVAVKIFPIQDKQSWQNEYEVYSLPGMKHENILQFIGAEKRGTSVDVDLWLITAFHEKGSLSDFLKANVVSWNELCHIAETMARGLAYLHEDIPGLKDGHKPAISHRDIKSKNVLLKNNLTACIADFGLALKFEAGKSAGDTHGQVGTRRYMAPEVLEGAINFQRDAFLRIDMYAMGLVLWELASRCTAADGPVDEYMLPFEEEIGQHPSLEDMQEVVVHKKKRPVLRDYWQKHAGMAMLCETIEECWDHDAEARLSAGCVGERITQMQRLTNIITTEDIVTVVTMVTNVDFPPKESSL
The target of a further test is BLK (Homo sapiens, UniProt P51451). As to conditions: competition binding, % of control. Summed up: as §1
Chain of BLK (P51451 whole entry): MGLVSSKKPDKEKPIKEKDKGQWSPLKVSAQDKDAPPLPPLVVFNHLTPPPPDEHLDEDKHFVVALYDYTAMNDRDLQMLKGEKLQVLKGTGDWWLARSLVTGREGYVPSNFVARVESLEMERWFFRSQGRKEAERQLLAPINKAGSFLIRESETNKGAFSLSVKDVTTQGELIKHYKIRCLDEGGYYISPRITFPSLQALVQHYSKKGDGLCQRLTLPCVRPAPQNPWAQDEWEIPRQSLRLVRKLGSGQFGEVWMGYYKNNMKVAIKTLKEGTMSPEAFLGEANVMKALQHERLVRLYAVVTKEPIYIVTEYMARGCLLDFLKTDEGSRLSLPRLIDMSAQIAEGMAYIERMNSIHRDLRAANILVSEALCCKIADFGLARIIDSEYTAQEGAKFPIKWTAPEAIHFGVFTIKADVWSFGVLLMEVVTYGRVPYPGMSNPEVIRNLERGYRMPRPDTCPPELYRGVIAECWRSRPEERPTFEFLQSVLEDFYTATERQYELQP
A further test addresses CDK4 (Homo sapiens, UniProt P11802). As to conditions: competition binding, % of control; read-out: Percent Control (100 uM Levosimendan). Summed up: as §1
Another test deals with DYRK1B (Homo sapiens, UniProt Q9Y463). As to conditions: competition binding, % of control; read-out: Percent Control (100 uM Levosimendan). Put shortly: as §1
Chain of DYRK1B (Q9Y463 whole entry): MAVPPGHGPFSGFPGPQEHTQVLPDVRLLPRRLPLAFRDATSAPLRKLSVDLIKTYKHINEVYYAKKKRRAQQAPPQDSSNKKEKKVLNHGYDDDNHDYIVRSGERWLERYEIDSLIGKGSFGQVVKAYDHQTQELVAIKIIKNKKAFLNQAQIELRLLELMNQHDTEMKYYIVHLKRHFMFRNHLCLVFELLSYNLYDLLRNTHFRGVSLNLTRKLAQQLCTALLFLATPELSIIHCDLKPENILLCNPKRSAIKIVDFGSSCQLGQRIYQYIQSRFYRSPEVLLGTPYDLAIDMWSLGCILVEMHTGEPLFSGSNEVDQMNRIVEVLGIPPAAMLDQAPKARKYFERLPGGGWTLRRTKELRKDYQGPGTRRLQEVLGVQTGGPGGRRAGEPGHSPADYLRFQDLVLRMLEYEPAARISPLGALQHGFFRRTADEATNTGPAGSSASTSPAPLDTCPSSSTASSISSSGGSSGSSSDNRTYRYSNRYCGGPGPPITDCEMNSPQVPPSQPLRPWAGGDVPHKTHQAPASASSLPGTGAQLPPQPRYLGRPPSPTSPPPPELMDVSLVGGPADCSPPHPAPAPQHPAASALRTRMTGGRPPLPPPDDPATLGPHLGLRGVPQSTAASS
A further test addresses EPHA4 (Homo sapiens, UniProt P54764). As to conditions: competition binding, % of control; read-out: Percent Control (100 uM Levosimendan). Summed up: as §1
In another test the target is FLT3-autoinhibited (Homo sapiens, UniProt P36888). The conditions noted are these: competition binding, % of control; read-out: Percent Control (100 uM Levosimendan). Put shortly: as §1
The next test has as its target ITK (Homo sapiens, UniProt Q08881). As to conditions: competition binding, % of control; read-out: Percent Control (100 uM Levosimendan). Summed up: as §1
A further test concerns the target MELK (Homo sapiens, UniProt Q14680). The conditions noted are these: competition binding, % of control; read-out: Percent Control (100 uM Levosimendan). Put shortly:
as §1

The next test concerns the target NEK2 (Homo sapiens, UniProt P51955). The conditions noted are these: competition binding, % of control; read-out: Percent Control (100 uM Levosimendan). Summed up: as §1
The target in a further test is PLK3 (Homo sapiens, UniProt Q9H4B4). The conditions noted are these: competition binding, % of control; read-out: Percent Control (100 uM Levosimendan). Put shortly:
as §1

The next test deals with PRKCQ (Homo sapiens, UniProt Q04759). The conditions noted are these: competition binding, % of control. Put shortly:
as §1

The target of a further test is PRKD2 (Homo sapiens, UniProt Q9BZL6). As to conditions: competition binding, % of control; read-out: Percent Control (100 uM Levosimendan). Put shortly: as §1
The next test addresses RIPK2 (Homo sapiens, UniProt O43353). The conditions noted are these: competition binding, % of control; read-out: Percent Control (100 uM Levosimendan). Summed up: as §1
The target in test [1] is T1, RSK3(Kin.Dom.2-C-terminal) (Homo sapiens, UniProt Q15349).
T1 construct: gene RPS6KA2; Kin.Dom.2-C-terminal
The conditions noted are these: competition binding, % of control; read-out: Percent Control (100 uM Levosimendan). Put shortly:
as §1

Test [2] deals with T2, RSK4(Kin.Dom.1-N-terminal) (Homo sapiens, UniProt Q9UK32).
T2 construct: gene RPS6KA6; Kin.Dom.1-N-terminal
As to conditions: competition binding, % of control; read-out: Percent Control (100 uM Levosimendan). Summed up: as §1

The next test has as its target T3, SGK (Homo sapiens, UniProt O00141).
T3 construct: gene SGK1
The conditions noted are these: competition binding, % of control. Put shortly: as §1

Another test deals with SRPK1 (Homo sapiens, UniProt Q96SB4). The conditions noted are these: competition binding, % of control. Summed up: as §1
Chain of SRPK1 (Q96SB4 whole entry): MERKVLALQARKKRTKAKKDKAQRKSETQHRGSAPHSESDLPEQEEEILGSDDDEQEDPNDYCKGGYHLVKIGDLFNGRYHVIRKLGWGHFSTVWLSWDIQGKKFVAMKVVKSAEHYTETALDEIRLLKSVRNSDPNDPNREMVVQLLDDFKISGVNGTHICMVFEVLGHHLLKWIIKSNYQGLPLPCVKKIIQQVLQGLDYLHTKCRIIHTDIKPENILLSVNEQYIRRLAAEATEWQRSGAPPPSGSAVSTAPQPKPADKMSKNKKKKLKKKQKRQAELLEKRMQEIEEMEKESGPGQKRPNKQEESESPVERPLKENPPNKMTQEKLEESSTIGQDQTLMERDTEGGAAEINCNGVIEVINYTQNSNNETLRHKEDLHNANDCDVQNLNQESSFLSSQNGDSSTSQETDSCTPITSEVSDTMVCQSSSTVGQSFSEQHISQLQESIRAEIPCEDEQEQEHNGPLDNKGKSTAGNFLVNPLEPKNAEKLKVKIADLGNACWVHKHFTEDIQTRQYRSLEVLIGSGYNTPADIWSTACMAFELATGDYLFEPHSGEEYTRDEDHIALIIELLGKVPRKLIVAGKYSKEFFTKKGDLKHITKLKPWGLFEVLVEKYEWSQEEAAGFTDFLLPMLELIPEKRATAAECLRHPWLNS
Another test addresses STK33 (Homo sapiens, UniProt Q9BYT3). The conditions noted are these: competition binding, % of control; read-out: Percent Control (100 uM Levosimendan). Put shortly: as §1
The mark [3] stands for this setting: read-out: Percent Control (10 uM Levosimendan).
The mark [4] stands for this setting: read-out: Percent Control (100 uM Levosimendan).

Chain of PRKCQ (Q04759 whole entry): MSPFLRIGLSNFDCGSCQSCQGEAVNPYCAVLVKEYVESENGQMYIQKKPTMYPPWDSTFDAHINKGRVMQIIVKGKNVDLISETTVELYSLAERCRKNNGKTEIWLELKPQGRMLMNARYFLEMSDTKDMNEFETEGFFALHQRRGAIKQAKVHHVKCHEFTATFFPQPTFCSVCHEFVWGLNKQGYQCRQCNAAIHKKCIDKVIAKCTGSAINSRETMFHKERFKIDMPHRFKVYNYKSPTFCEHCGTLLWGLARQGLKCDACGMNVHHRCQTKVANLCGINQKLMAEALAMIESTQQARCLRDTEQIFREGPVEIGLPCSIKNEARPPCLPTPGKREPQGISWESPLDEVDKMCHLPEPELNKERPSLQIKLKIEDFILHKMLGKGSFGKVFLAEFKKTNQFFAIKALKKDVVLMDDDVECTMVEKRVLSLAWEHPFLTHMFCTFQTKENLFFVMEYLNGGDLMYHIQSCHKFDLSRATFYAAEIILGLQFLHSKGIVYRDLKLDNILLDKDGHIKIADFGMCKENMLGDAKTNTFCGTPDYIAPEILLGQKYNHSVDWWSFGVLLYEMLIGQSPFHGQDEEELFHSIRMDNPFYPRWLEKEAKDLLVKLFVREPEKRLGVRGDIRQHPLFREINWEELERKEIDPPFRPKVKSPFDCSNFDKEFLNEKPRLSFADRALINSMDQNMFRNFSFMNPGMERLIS
T3 sequence (O00141 whole entry): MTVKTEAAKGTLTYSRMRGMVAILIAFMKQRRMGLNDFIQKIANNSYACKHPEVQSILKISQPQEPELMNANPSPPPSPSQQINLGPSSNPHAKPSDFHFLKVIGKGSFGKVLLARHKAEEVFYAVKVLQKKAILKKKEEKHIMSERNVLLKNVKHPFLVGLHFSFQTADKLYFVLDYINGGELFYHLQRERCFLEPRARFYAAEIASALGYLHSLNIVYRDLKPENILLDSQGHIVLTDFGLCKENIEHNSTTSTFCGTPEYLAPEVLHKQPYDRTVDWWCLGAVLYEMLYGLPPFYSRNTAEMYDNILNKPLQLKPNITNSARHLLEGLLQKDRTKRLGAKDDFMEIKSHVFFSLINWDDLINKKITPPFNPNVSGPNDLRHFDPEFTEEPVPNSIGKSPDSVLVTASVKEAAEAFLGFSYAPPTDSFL
Chain of CDK4 (P11802 whole entry): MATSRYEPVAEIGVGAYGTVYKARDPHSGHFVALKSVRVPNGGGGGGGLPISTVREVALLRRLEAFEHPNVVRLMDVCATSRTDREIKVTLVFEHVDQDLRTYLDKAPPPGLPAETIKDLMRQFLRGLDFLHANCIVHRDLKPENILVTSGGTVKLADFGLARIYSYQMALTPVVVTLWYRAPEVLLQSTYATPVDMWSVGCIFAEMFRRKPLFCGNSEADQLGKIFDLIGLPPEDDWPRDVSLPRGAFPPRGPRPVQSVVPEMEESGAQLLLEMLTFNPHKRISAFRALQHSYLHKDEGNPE
Chain of RIPK2 (O43353 whole entry): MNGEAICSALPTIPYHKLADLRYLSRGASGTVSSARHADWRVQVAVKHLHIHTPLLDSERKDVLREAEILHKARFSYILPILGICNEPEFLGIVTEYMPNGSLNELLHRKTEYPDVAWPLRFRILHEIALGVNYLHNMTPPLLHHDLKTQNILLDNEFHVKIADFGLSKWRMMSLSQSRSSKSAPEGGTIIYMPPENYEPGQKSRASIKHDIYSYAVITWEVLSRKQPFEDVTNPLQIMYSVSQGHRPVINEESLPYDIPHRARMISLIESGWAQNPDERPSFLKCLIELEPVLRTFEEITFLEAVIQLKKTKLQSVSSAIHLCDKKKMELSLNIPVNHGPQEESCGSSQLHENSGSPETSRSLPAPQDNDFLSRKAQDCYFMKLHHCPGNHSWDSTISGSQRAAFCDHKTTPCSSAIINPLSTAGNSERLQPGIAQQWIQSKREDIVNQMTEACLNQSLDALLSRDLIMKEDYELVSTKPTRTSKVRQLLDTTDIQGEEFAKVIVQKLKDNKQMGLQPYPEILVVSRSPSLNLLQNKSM
Chain of ITK (Q08881 whole entry): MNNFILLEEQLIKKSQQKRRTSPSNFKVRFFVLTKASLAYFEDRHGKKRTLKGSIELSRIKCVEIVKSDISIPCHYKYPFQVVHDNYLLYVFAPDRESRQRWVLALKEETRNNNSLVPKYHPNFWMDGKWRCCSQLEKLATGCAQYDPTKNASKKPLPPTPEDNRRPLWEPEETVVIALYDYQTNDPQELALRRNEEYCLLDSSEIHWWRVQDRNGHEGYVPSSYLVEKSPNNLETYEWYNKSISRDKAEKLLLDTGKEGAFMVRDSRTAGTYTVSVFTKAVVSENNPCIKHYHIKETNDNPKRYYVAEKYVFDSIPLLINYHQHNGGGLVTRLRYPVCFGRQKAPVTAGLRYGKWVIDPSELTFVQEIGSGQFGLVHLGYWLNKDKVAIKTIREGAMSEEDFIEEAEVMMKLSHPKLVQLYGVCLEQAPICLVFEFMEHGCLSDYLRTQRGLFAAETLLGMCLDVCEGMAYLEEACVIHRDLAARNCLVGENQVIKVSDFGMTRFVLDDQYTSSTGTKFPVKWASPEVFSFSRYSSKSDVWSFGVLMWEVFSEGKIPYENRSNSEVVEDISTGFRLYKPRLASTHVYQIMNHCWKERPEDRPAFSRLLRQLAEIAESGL

Regarding `C[C@@H]1CC(=O)NN=C1c1ccc(NN=C(C#N)C#N)cc1` [levosimendan], the remaining binding at 10 µM at ACVR2A (setting [3]) was found to be 100%; on BLK (setting [3]), 79%; on PRKCQ (setting [3]), 5.2%; on SGK (setting [3]), 81%; on SRPK1 (setting [3]) it was 36%. Also, the remaining binding at 100 µM amounted to 46% on ACVR2A (setting [4]); 50% on BLK (setting [4]); 100% on CDK4; 100% on DYRK1B; 82% on EPHA4; 98% on FLT3-autoinhibited. Also, the remaining binding at 100 µM on ITK worked out at 86%; at MELK, 100%; on NEK2, 96%; on PLK3, 97%; at PRKCQ (setting [4]) it was 36%; on PRKD2 it was 75%. Further, the remaining binding at 100 µM on RIPK2 was found to be 91%; in test [1] it was 100%; in [2], 100%; on SGK (setting [4]), 40%; on SRPK1 (setting [4]), 40%; on STK33, 100%.
